# Structures can show the parent of a compound that is named as a salt.
# Assays:
# StARkin domain of Lam6 = biological target: T1, StARkin domain of Lam6 (Saccharomyces cerevisiae, UniProt Q08001); experiment: MST protein-liposome binding; settings: Fig. 7F, StARkin domain of Lam6, DOPC/DOPE 80/20 mol% liposomes
# T1 construct: Lam6^StARkin (401–579 aa, 22 kDa); made in house; host or cells: Lactococcus lactis DML1
# T1 sequence (Q08001 401-579): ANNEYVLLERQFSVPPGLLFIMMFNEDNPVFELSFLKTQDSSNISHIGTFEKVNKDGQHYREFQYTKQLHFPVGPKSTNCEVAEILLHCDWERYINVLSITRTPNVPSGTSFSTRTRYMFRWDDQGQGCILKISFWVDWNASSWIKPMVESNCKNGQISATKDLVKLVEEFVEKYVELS
# Protocol: To test whether the GRAM domain of Lam6 could function as a coincidence detector recognizing both PS and ergosterol simultaneously, as observed with the GRAM domain of Aster-B/GRAM1b, we assessed liposome binding by isolated GRAM and StARkin domains ([58], [60]).
# Lipids were dried from chloroform stock solutions using a rotary evaporator or under a gentle nitrogen gas stream. The dried lipid film was resuspended in 1 ml liposome buffer (25 mM Tris (pH 7.5), 50 mM NaCl) to a final concentration of 2 mM phospholipids. The phospholipid suspension was then subjected to ten freeze-thaw cycles, alternating between liquid nitrogen and a 55 °C water bath.
# The resulting multilamellar liposomes were extruded nineteen times through a polycarbonate filter of 0.8 μm pore size to generate large unilamellar vesicles.
# Osh4 [1] = biological target: T2, Osh4 (Saccharomyces cerevisiae, UniProt P35844); experiment: In vitro radioligand binding assay with [3H]-cholesterol; settings: Osh4, pH 7.5, 100 pmol protein
# T2 construct: made in house; host or cells: E. coli BL21
# Text: (§1) To validate these in vivo findings with independent in vitro approaches, Pry1, NPC2, Osh4, and STARD1 were expressed as C terminally polyhistidine-tagged proteins in Escherichia coli and purified using Ni^2+-NTA agarose beads. […] Protein-bound radioligand was separated from unbound ligand by absorption to an ion-exchange matrix ([13], [51]) (Fig. 2A).
# (§2) Schematic representation of the workflow of the in vitro lipid binding assay. Purified proteins (blue, 100 pmol), different concentrations of radiolabeled [^3H]-cholesterol (green, 0–400 pmol) are incubated together to allow binding. Proteins were separated from unbound ligand by adsorption to an ion exchange matrix (gray), followed by washing steps. The protein-bound ligand is then eluted and quantified by liquid scintillation counting. Nonspecific binding is assessed in parallel by performing the assay in the absence of protein.
# (§3) The in vitro radioligand binding assay was performed essentially as previously described ([13], [39]). Purified proteins (100 pmol) were incubated with 100 to 400 pmol of [^3H]-cholesterol (1 mCi/ml, specific activity 50 Ci/mmol; American Radiolabeled Chemicals, Inc), in binding buffer for 1 h at 30 °C. The pH of the binding buffer was adjusted based on the isoelectric point of the protein: for Pry1 and Osh4, 20 mM Tris (pH 7.5), 30 mM NaCl; for STARD1, the same buffer at pH 8.5; and for NPC2, 20 mM potassium acetate (pH 5.5), 30 mM NaCl.
# (§4) Proteins were then separated from unbound ligand by adsorption to SP Sepharose (GE Healthcare) beads for NPC2, and to Q Sepharose beads (GE Healthcare) beads for all other proteins. Beads were washed and proteins were eluted with binding buffer containing 1 M NaCl. Protein-bound radioligand was quantified by scintillation counting. Ion exchange beads without protein were used to define nonspecific binding. Data were analyzed using Prism software (GraphPad) and are presented as the mean ± SD from three independent experiments.
# Pry1 [2] = biological target: T3, Pry1 (Saccharomyces cerevisiae, UniProt P47032); experiment: as above; settings: Pry1, pH 7.5, 100 pmol protein
# T3 construct: made in house; host or cells: E. coli BL21
# T3 sequence (P47032 20-299): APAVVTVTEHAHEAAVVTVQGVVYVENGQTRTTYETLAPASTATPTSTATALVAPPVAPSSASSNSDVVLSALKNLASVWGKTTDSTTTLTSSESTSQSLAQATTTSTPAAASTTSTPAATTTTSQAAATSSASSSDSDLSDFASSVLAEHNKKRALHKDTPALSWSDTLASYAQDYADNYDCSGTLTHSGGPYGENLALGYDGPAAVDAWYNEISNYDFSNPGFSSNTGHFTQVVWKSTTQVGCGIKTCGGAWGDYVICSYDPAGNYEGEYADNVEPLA
# Text: as §1, §2, §3, §4
# NPC2 = biological target: T4, NPC2 (Homo sapiens, UniProt P61916); experiment: as above; settings: NPC2, pH 5.5, 100 pmol protein
# T4 construct: made in house; host or cells: E. coli
# T4 sequence (P61916 20-151): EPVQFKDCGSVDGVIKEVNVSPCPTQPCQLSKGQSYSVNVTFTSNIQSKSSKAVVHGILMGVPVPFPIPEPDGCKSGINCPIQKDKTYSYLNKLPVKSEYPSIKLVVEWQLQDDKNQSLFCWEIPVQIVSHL
# Text: as §1, §2, §3, §4
# Sip3^StARkin = biological target: T5, Sip3^StARkin (Saccharomyces cerevisiae, UniProt P38717); experiment: biochemical; type: binding
# T5 construct: Sip3^StARkin (733–1002 aa, 32.5 kDa); made in house; host or cells: Lactococcus lactis DML1
# T5 sequence (P38717 733-1002): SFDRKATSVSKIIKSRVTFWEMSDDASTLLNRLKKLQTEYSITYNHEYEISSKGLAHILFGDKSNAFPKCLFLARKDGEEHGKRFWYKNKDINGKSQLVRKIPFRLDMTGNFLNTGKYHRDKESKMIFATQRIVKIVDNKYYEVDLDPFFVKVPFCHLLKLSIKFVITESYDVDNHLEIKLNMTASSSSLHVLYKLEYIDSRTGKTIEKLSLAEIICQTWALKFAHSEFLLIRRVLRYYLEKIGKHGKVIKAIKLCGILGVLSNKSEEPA
# Protocol: (§5) To further characterize these domains, we expressed and purified Ysp1^StARkin, Sip3^StARkin, Lam4^StARkin1, and Lam4^StARkin2 from bacterial cells and assessed their sterol-binding affinities using MST.
# (§6) Purified proteins were fluorescently labeled using the RED-tris-NTA His tag protein labeling kit (NanoTemper Technologies) ([52]). […] Binding by Pry1, Osh4, and the StARkin domains was assessed at pH 7.5, STARD1 at pH 8.5, and NPC2 binding affinity was determined at pH 5.5.
# (§7) Samples were centrifuged for 5 min at 15,000g at 4 °C and loaded into standard MST capillaries. The dissociation constant Kd was determined by plotting the fraction of ligand-bound protein against the logarithm of the ligand concentrations, using Prism software (GraphPad).
# Osh4 [3] = biological target: T2, Osh4; experiment: Microscale thermophoresis (MST) ligand binding; settings: Osh4, pH 7.5, 50 nM protein
# Protocol: (§8) This polyhistidine-tagged protein is site-specific fluorescently labeled (RED-tris-NTA, green star). The labeled protein is incubated with varying concentrations of ligand, loaded into glass capillaries, the capillaries are locally heated with an infrared (IR) laser, generating a temperature gradient, and the rate of temperature-induced diffusion of the ligand-bound protein was recorded and plotted as a function of ligand concentration. B, sterol binding by Pry1, NPC2, Osh4, and STARD1 measured by MST. […] Binding by Pry1, Osh4 was assessed at pH 7.5, STARD1 at pH 8.5, and NPC2 binding affinity was determined at pH 5.5. […] Data shown in panelB represent the mean ± SD of three independent experiments. MST, microscale thermophoresis; NPC2, Niemann-Pick type C2; Pry, pathogen-related in yeast; STARD1, steroidogenic acute regulatory protein 1.
# as §6, §7
# STARD1 = biological target: T6, STARD1 (Homo sapiens, UniProt P49675); experiment: Microscale thermophoresis (MST) ligand binding; settings: STARD1, pH 8.5, 50 nM protein
# T6 construct: made in house; host or cells: E. coli BL21
# T6 sequence (P49675 64-285): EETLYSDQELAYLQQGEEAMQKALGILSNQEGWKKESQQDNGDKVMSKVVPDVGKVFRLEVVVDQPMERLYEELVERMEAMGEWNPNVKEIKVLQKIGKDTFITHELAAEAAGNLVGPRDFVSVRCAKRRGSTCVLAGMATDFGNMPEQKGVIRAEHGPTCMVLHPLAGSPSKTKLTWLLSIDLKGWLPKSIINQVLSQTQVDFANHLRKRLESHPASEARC
# Protocol: as §8, §6, §7
# Pry1 [4] = biological target: T3, Pry1; experiment: Microscale thermophoresis (MST) ligand binding; settings: Pry1, pH 7.5, 50 nM protein
# Protocol: as §8, §6, §7
# Lam6 (ΔTMD) = biological target: T7, Lam6 (ΔTMD) (Saccharomyces cerevisiae, UniProt Q08001); experiment: Microscale thermophoresis (MST) ligand binding; settings: soluble Lam6 (ΔTMD)
# T7 construct: Lam5 (1–633 aa), and Lam6 (1–621 aa); made in house; host or cells: E. coli BL21
# T7 sequence (Q08001 1-621): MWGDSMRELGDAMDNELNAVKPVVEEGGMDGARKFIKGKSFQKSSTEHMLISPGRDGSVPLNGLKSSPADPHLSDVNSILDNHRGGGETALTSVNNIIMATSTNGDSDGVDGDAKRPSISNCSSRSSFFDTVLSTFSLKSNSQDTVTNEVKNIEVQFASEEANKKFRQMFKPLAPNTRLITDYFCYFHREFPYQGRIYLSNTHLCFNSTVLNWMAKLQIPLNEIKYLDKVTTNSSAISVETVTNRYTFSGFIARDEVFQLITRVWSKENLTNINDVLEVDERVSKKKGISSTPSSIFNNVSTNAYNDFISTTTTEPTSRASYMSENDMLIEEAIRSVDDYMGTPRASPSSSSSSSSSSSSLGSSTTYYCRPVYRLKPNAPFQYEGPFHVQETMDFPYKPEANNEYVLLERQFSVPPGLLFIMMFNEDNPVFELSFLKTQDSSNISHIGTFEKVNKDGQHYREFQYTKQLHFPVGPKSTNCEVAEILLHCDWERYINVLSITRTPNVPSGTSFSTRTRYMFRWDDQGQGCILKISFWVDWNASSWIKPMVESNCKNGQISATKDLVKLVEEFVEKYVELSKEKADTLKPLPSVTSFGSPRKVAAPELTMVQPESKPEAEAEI
# Text: (§9) To corroborate these in vivo findings, we expressed soluble versions (ΔTMD) of Lam5 and Lam6 as polyhistidine-tagged proteins and assessed their sterol binding capacity using MST.
# Lam5 (ΔTMD) = biological target: T8, Lam5 (ΔTMD) (Saccharomyces cerevisiae, UniProt P43560); experiment: Microscale thermophoresis (MST) ligand binding; settings: soluble Lam5 (ΔTMD)
# T8 construct: Lam5 (1–633 aa), and Lam6 (1–621 aa); made in house; host or cells: E. coli BL21
# T8 sequence (P43560 1-633): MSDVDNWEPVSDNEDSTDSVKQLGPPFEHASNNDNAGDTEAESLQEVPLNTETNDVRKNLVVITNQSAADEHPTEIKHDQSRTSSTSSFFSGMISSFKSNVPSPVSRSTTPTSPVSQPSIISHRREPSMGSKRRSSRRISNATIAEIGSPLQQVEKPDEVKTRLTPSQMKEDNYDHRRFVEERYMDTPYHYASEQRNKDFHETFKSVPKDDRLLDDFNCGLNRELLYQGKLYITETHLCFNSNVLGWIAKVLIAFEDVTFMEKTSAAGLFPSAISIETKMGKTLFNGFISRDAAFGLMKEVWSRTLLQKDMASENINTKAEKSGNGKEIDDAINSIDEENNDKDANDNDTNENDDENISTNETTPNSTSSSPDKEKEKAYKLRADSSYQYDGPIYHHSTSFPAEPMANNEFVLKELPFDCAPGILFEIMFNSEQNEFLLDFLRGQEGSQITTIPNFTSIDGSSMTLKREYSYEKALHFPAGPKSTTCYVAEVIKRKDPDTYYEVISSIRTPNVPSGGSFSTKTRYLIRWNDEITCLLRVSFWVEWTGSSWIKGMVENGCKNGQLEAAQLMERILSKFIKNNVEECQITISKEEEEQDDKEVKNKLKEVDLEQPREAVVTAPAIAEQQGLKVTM
# Text: as §9
# Lam4^StARkin2 = biological target: T9, Lam4^StARkin2 (Saccharomyces cerevisiae, UniProt P38800); experiment: Microscale thermophoresis (MST) ligand binding; settings: Lam4^StARkin2, pH 7.5
# T9 construct: StARkin2, 967–1139 aa, 34.6 kDa; made in house; host or cells: E. coli BL21
# Text: as §5
# Lam4^StARkin1 = biological target: T10, Lam4^StARkin1 (Saccharomyces cerevisiae, UniProt P38800); experiment: Microscale thermophoresis (MST) ligand binding; settings: Lam4^StARkin1, pH 7.5
# T10 construct: both StARkin domains of Lam4 (StARkin1, 758–930 aa, 20.3 kDa); made in house; host or cells: E. coli BL21
# Text: as §5
# Ysp1^StARkin = biological target: T11, Ysp1^StARkin (Saccharomyces cerevisiae, UniProt P38851); experiment: Microscale thermophoresis (MST) ligand binding; settings: pH 7.5
# T11 construct: Ysp1^StARkin (765–978 aa, 26.9 kDa); made in house; host or cells: E. coli BL21
# T11 sequence (P38851 765-978): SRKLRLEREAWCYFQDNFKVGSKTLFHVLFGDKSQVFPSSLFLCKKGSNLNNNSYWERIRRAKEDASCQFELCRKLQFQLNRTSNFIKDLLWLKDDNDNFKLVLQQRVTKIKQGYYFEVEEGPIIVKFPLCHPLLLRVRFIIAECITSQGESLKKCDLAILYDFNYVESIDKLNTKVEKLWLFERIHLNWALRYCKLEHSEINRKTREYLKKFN
# Text: as §5
# T9 sequence (P38800 967-1139): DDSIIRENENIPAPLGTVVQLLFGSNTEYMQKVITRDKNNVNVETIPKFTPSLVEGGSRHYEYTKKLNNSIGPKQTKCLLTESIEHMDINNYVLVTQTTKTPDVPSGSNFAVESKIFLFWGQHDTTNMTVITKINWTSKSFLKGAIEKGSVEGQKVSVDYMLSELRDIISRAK
# T10 sequence (P38800 758-930): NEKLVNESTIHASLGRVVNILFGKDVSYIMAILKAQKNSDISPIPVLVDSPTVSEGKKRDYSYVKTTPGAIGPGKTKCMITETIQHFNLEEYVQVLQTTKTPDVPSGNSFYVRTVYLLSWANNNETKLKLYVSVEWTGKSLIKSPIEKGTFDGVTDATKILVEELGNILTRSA
structure (smiles),measurement,setting,value
CC(C)[C@@H](C)/C=C/[C@@H](C)[C@H]1CC[C@H]2C3=CC=C4C[C@@H](O)CC[C@]4(C)[C@H]3CC[C@]12C [ergosterol],Kd,StARkin domain of Lam6,8600 ± 3400 nM
CC(C)CCC[C@@H](C)[C@H]1CC[C@H]2[C@@H]3CC=C4C[C@@H](O)CC[C@]4(C)[C@H]3CC[C@]12C [cholesterol],Kd,Osh4 [1],2300 nM
same,Kd,Pry1 [2],2400 nM
same,Kd,NPC2,1600 nM
CC(C)CCC[C@@H](C)[C@H]1CC[C@H]2[C@@H]3CC=C4C[C@@H](OS(=O)(=O)O)CC[C@]4(C)[C@H]3CC[C@]12C [cholesterol sulfate],Kd,Sip3^StARkin,530 nM
same,Kd,Osh4 [3],1690 nM
same,Kd,STARD1,64 nM
same,Kd,Pry1 [4],1750 nM
same,Kd,Lam6 (ΔTMD),90 nM
same,Kd,Lam5 (ΔTMD),290 nM
same,Kd,Lam4^StARkin2,340 nM
same,Kd,Lam4^StARkin1,71 nM
same,Kd,Ysp1^StARkin,47 nM
